Test results published in publication PMC4624765, “C-di-GMP Regulates Motile to Sessile Transition by Modulating MshA Pili Biogenesis and Near-Surface Motility Behavior in Vibrio cholerae” (PLoS Pathogens, 2015).

Legend:
[1] = biological target: T1, MshE (Vibrio cholerae, UniProt Q9KUV7); experiment: fluorescence thermal shift (SYPRO Orange); assay type: binding; design: gene VC_0405; full-length, expressed in E. coli BL21, purified on GST column with glutathione elution; conditions: 25 mM Tris-HCl pH 7.5, 100 mM NaCl, 0.2 mM MgCl2
T1 sequence (Q9KUV7 1-575): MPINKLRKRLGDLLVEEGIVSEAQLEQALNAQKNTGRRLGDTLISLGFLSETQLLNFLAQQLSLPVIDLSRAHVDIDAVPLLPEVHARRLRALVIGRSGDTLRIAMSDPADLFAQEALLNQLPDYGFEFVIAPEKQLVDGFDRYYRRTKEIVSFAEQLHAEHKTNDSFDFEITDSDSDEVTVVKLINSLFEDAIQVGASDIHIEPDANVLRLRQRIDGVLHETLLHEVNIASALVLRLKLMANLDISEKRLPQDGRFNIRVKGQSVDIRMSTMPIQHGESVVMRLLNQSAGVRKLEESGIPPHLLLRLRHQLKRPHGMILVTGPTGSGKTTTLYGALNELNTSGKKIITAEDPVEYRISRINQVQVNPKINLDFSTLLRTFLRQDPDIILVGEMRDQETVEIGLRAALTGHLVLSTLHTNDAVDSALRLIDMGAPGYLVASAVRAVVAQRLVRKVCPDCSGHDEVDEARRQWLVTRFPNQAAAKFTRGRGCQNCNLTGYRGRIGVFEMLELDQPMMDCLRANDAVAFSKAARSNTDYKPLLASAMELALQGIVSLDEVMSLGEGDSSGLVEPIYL

[2] = biological target: T2, MshE N-terminal domain (Vibrio cholerae, UniProt Q9KUV7); experiment: fluorescence thermal shift (SYPRO Orange); assay type: binding; conditions: 25 mM Tris-HCl pH 7.5, 100 mM NaCl, 0.2 mM MgCl2
T2 construct: gene VC_0405; N-terminal domain, residues 1-180, expressed in E. coli BL21
T2 sequence (Q9KUV7 1-180 limits assumed): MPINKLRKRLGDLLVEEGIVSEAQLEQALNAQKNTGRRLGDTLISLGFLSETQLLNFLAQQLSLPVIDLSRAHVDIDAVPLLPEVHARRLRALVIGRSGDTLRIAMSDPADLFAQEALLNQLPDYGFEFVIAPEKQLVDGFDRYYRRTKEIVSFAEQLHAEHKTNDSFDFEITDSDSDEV

[3] = biological target: T3, VpsT (Vibrio cholerae, UniProt Q9KKZ8); experiment: biochemical
T3 construct: gene VC_A0952

[4] = biological target: T1, MshE; experiment: biochemical; design: gene VC_0405

SMILES | Tm with 2 mM ligand [1] | Tm with 2 mM ligand [2] | Kd [3] | Kd [4]
Nc1ncnc2c1ncn2[C@@H]1O[C@H](COP(=O)(O)OP(=O)(O)OP(=O)(O)O)[C@@H](O)[C@H]1O [ATP] | 40.15 ±1.02 °C |  |  | 
Nc1nc2c(ncn2[C@@H]2O[C@@H]3COP(=O)(O)O[C@H]4[C@@H](O)[C@H](n5cnc6c(=O)[nH]c(N)nc65)O[C@@H]4COP(=O)(O)O[C@H]3[C@H]2O)c(=O)[nH]1 [c-di-GMP] | 42.77±0.70 °C | 70.18 ±0.55 °C | 10.1 µM | 8.77 µM
